Measurements taken from patent US10130096B2, “Method for protecting useful plants or plant propagation material” (SYNGENTA PARTICIPATIONS AG, priority 2011, dated 2018).

Assays:
[1] = test system: Fusarium culmorum; assay: Fusarium culmorum liquid culture growth inhibition; type: cell-based; settings: photometric, 3-4 days after application, read-out: control on Fusarium culmorum
Method: (§1) Conidia of the fungus from cryogenic storage are directly mixed into nutrient broth (PDB potato dextrose broth). After placing a (DMSO) solution of test compound into a microtiter plate (96-well format), the nutrient broth containing the fungal spores is added. The test plates are incubated at 24° C. and the inhibition of growth is determined photometrically 3-4 days after application.

[2] = test system: Pythium ultimum; assay: Pythium ultimum liquid culture growth inhibition; type: cell-based; settings: Globisporangium ultimum, photometric, 2-3 days after application, read-out: control on Pythium ultimum
Method: Mycelia fragments and oospores of a newly grown liquid culture of the fungus are directly mixed into nutrient broth (PDB potato dextrose broth). After placing a (DMSO) solution of test compound into a microtiter plate (96-well format), the nutrient broth containing the fungal mycelia/spore mixture is added.

[3] = test system: Botryotinia fuckeliana (Botrytis cinerea); assay: Botryotinia fuckeliana liquid culture growth inhibition; type: cell-based; settings: photometric, 3-4 days after application, read-out: control on Botryotinia fuckeliana
Method: Conidia of the fungus from cryogenic storage are directly mixed into nutrient broth (Vogels broth). After placing a (DMSO) solution of test compound into a microtiter plate (96-well format), the nutrient broth containing the fungal spores is added.

[4] = test system: Alternaria solani; assay: Alternaria solani on tomato plants; type: in vivo; settings: 4-week old tomato plants cv. Roter Gnom, spray, inoculated two days after application
Method: 4-week old tomato plants cv. Roter Gnom are sprayed in a spray chamber with the formulated test compound diluted in water. The test plants are inoculated by spraying them with a spore suspension two days after application. The inoculated test plants are incubated at 22/18° C. (day/night) and 95% rh in a greenhouse and the percentage leaf area covered by disease is assessed when an appropriate level of disease appears on untreated check plants (5-7 days after application).

[5] = test system: Monographella nivalis (Microdochium nivale); assay: Monographella nivalis liquid culture growth inhibition; type: cell-based; settings: photometric, 4-5 days after application, read-out: control on Monographella nivalis
Method: as §1, with “4-5” for “3-4”

[6] = test system: Pythium ultimum; assay: Pythium ultimum on Cotton/Pouch; type: in vivo; settings: Globisporangium ultimum, 168 h, cotton, pouch, 7 days at 17° C.
Text: A spore/mycelium suspension is pipetted into the pouch simultaneously.

[7] = test system: Pythium ultimum; assay: Example B-5: seed treatment against Pythium ultimum on cotton; type: in vivo; settings: Globisporangium ultimum, rate of 200 g/100 kg seeds, infested soil, number of germinated, healthy plants
Method: The trial is kept for 1 week in a growth room at 20° C. and darkness. After this period the trial is transferred to a greenhouse where a temperature of 21° C. and a 14 h light period is provided until the trial is finished. The following assessments are made: number of germinated, healthy plants. Each number is determined for 150 seeds per treatment (3 replicates a 50 seeds).

[8] = test system: Mycosphaerella arachidis (Cercospora arachidicola); assay: Mycosphaerella arachidis liquid culture growth inhibition; type: cell-based; settings: photometric, 4-5 days after application, read-out: control on Mycosphaerella arachidis
Method: (§2) Conidia of the fungus from cryogenic storage are directly mixed into nutrient broth (PDB potato dextrose broth). After placing a (DMSO) solution of test compound into a microtiter plate (96-well format), the nutrient broth containing the fungal spores is added.

[9] = test system: Thanatephorus cucumeris (Rhizoctonia solani); assay: Thanatephorus cucumeris liquid culture growth inhibition; type: cell-based; settings: photometric, 3-4 days after application, read-out: control on Thanatephorus cucumeris
Method: Mycelia fragments of a newly grown liquid culture of the fungus are directly mixed into nutrient broth (PDB potato dextrose broth). After placing a (DMSO) solution of the test compounds into a microtiter plate (96-well format), the nutrient broth containing the fungal material is added. The test plates are incubated at 24° C. and the inhibition of growth is determined photometrically 3-4 days after application.

[10] = test system: Glomerella lagenarium (Colletotrichum lagenarium); assay: Glomerella lagenarium liquid culture growth inhibition; type: cell-based; settings: Colletotrichum orbiculare, photometric, 3-4 days after application, read-out: control on Glomerella lagenarium
Method: as §2

[11] = test system: Pseudoperonospora cubensis; assay: Pseudoperonospora cubensis on Cucumber/Pouch; type: in vivo; settings: 60 ppm; cucumber, pouch, inoculated 8 days after sowing, 7 days incubation
Text: 8 days after sowing cucumber plants were inoculated by spraying a spore suspension on the test plants.

[12] = test system: Puccinia recondita; assay: Puccinia recondita on Wheat/Pouch; type: in vivo; settings: 20 ppm; wheat, pouch, inoculated 8 days after sowing, 8 days incubation
Method: 8 days after sowing wheat plants were inoculated by spraying a spore suspension on the test plants. After an incubation period of 8 days at 24° C./22° C.

Structure (SMILES)	inhibition of growth at 200 ppm [1] [%]	inhibition of growth at 200 ppm [2] [%]	inhibition of growth at 200 ppm [3] [%]	pest or weed control at 60 ppm [4] [%]	inhibition of growth at 200 ppm [5] [%]	pest or weed control at 20 ppm [6] [%]	pest or weed control at 200 g/100 kg seeds [7] [%]	inhibition of growth at 200 ppm [8] [%]	inhibition of growth at 200 ppm [9] [%]	inhibition of growth at 200 ppm [10] [%]	control on Pseudoperonospora cubensis [11]	control on Puccinia recondita [12]
OB1OCc2cc(Cl)ccc21 [Compound 1, 5-Chloro-3H-benzo[c][1,2]oxaborol-1-ol]	≥ 80	≥ 80	≥ 80	≥ 60	≥ 80	≥ 50	≥ 50	≥ 80	≥ 80	≥ 80		
CCC(N)COB1OCc2cc(Cl)ccc21 (centres unmarked) [Compound 2, 1-(5-Chloro-3H-benzo[c][1,2]oxaborol-1-yloxymethyl)-propylamine]	≥ 80	≥ 80	≥ 80	≥ 60	≥ 80	≥ 50	≥ 50	≥ 80	≥ 80	≥ 80		
CNCCOB1OCc2cc(Cl)ccc21 [Compound 4, [2-(5-Chloro-3H-benzo[c][1,2]oxaborol-1-yloxy)-ethyl]-methyl-amine]	≥ 80	≥ 80	≥ 80		≥ 80	≥ 50		≥ 80	≥ 80	≥ 80		
NCCCOB1OCc2cc(Cl)ccc21 [Compound 5, 3-(5-Chloro-3H-benzo[c][1,2]oxaborol-1-yloxy)-propylamine]	≥ 80	≥ 80	≥ 80	≥ 60	≥ 80	≥ 50	≥ 50	≥ 80	≥ 80	≥ 80	at least 50%	
O=[N+]([O-])c1ccc2c(c1)B(O)OC2 [Compound 7, 6-Nitro-3H-benzo[c][1,2]oxaborol-1-ol]		≥ 80		≥ 60	≥ 80	≥ 50		≥ 80		≥ 80		at least 50%
OB1OCc2cc(F)ccc21 [Compound 8, 5-Fluoro-3H-benzo[c][1,2]oxaborol-1-ol]	≥ 80	≥ 80	≥ 80	≥ 60	≥ 80	≥ 50	≥ 50	≥ 80	≥ 80	≥ 80		
NCC(=O)OB1OCc2cc(Cl)ccc21 [Compound 9, Amino-acetic acid 5-chloro-3H-benzo[c][1,2]oxaborol-1-yl ester]	≥ 80	≥ 80	≥ 80		≥ 80	≥ 50		≥ 80		≥ 80		
NCCCCOB1OCc2cc(Cl)ccc21 [Compound 10, 4-(5-Chloro-3H-benzo[c][1,2]oxaborol-1-yloxy)-butylamine]	≥ 80	≥ 80	≥ 80		≥ 80		≥ 50	≥ 80	≥ 80	≥ 80		
NCCCOB1OCc2cc(F)ccc21 [Compound 12, 3-(5-Fluoro-3H-benzo[c][1,2]oxaborol-1-yloxy)-propylamine]	≥ 80	≥ 80	≥ 80		≥ 80	≥ 50	≥ 50	≥ 80	≥ 80	≥ 80		
NCCCCOB1OCc2cc(F)ccc21 [Compound 13, 4-(5-Fluoro-3H-benzo[c][1,2]oxaborol-1-yloxy)-butylamine]	≥ 80	≥ 80	≥ 80		≥ 80		≥ 50	≥ 80	≥ 80	≥ 80		
CCC(CN)OB1OCc2cc(Cl)ccc21 (centres unmarked) [Compound 26, 2-(5-Chloro-3H-benzo[c][1,2]oxaborol-1-yloxy)-butylamine]	≥ 80	≥ 80	≥ 80		≥ 80		≥ 50	≥ 80	≥ 80	≥ 80		
CCC(N)COB1OCc2cc(F)ccc21 (centres unmarked) [Compound 30, 1-(5-Fluoro-3H-benzo[c][1,2]oxaborol-1-yloxymethyl)-propylamine]	≥ 80	≥ 80	≥ 80		≥ 80		≥ 50	≥ 80	≥ 80	≥ 80		
